“Also recorded” adds a separate entry of the source.
Experiments:
Assay type in all cases: cell-based, mouse
[1] = system: mitochondrial respiratory supercomplexes; assay: Supercomplex analysis (blue-native gels, in-gel activity and western blot)
Protocol: Analysis and quantification of mitochondrial respiratory complexes by western blot and enzymatic in-gel activity were carried out as previously reported (Acin-Perez et al., 2008)
Analysis and quantification of mitochondrial respiratory complexes by Western blot and enzymatic in-gel activity were carried out as described (Acin-Perez et al, 2008).

[2] = system: WT and PS-DKO cells; assay: Mitochondrial content and biogenesis (VDAC, TOM20 western blot; PGC-1α qRT-PCR)
Protocol: Total RNA was extracted from MEFs using TRIzol® Reagent (Invitrogen 15596-018) according to the manufacture's instructions, and was quantified by NanoDrop2000 (Thermo Scientific). […] of total RNA was used to obtain cDNA by RT-PCR using a High Capacity cDNA Reverse Transcription Kit (Applied Biosystems; PN 4368813, 4374966). Real-Time PCR was performed in triplicate in a StepOnePlus™ Real-Time PCR System (Applied Biosystems; 4376600). The expression of each gene under study was analyzed using specific predesigned TaqMan Probes (PGC-1α, ppargc1 Mm01208835_m1; aSMase, smpd1 Mm00488319_g1; nSMase, smpd3 Mm00491359_m1). The expression of each gene under study was analyzed using specific predesigned TaqMan Probes and normalizing against Gapdh expression (Applied Biosystems, 4352339E) as an internal standard.
Total RNA was extracted from MEFs using TRIzol® Reagent (Invitrogen 15596-018) according to the manufacture's instructions, and was quantified by NanoDrop2000 (Thermo Scientific). […] The expression of each gene under study was analyzed using specific predesigned TaqMan Probes (PGC-1α, ppargcl Mm01208835_ml; aSMase, smpd1 Mm00488319_g1; nSMase, smpd3 Mm00491359_ml). The forward and reverse primers for COXI quantification were, respectively, ([…] (SEQ ID NO: 5); […] (SEQ ID NO: 6)). […]

[3] = system: APP-DKO cells; assay: Seahorse analysis of mitochondrial respiration (OCR); settings: APP-DKO cells expressing C99; DAPT added
Protocol: (§1) Respirometry of cultured cells was performed using the XF24e Extracellular Flux Analyzer (Seahorse Bioscience). Oxygen consumption was measured in basal conditions (Seahorse media with 25 mM glucose and 2 mM pyruvate) and after the sequential addition of 1 μM oligomycin (Complex V inhibitor), 0.75 μM FCCP (uncoupler) and 1 μM rotenone/1 μM antimycin A (Complex I and Complex III inhibitors respectively).
(§2) To analyze the effect of Aβ addition, a mix of Aβ40/Aβ42 at a ratio 10:1 was added to the cultured cells to a final concentration of 6000 pg/ml for 24 h. For Aβ42 oligomer formation, 5 mM of Aβ42 in DMSO was diluted to 100 μM in ice-cold media, vortexed for 30 seconds, and incubated at 4° C. for 24 h. Aβ42 Oligomers were added to the cultured cells to a final concentration of 5 or 10 μM for 24 h.
(§3) Respirometry of cultured cells was performed using the XF24e Extracellular Flux Analyzer (Seahorse Bioscience). Oxygen consumption was measured in basal conditions (Seahorse media with 25 mM glucose and 2 mM pyruvate) and after the sequential addition of 1 μM oligomycin (complex V inhibitor), 0.75 μM FCCP (uncoupler), and 1 μM rotenone/1 μM antimycin A (complex I and complex III inhibitors, respectively). All results were averages of five or more biological replicates. Every biological replicate consisted of three technical replicates. For every technical replicate, we plated equal number of cells (25,000 cell/well when MEFs were used, and 50,000 cells/well when human primary fibroblasts were analyzed). The number of cells was also counted after every respirometry assay to correct for cell death. All oxygen consumption (OCR) data were normalized by the number of viable cells or by protein quantity when isolated mitochondria were used.
as §2, with “6,000” for “6000”, “s,” for “seconds,”, “Aβ42 Oligomers were added to the cultured cells to a final concentration of 5 or 10 μM for 24 h.” left out

[4] = system: WT MEFs and presenilin-mutant (PS-DKO) cells; assay: Filipin staining of free cholesterol; settings: WT MEFs treated with DAPT, then BACE1 inhibitor
Protocol: Cells were washed in PBS and fixed in 3% paraformaldehyde at room temperature for 1 h. After washing in PBS three times, samples were incubated in 1.5 mg/ml glycine in 1×PBS to quench the paraformaldehyde and then incubated in 0.05 mg/ml of filipin in PBS/10% FBS for 2 h at room temperature. Free cholesterol signal was visualized in by microscopy and quantified by ImageJ.

[5] = system: PS-DKO cells; assay: Seahorse analysis of mitochondrial respiration (OCR); settings: BI 100 nM, myriocin 5 μM, TAPI-1 5 μM, 12-16 h, Aβ40:Aβ42 10:1, 6 ng/ml
Protocol: as §1, §3

Row | SMILES | activity of supercomplexes I+III+IV, I+III and III+IV ([1]; mitochondria from DAPT-treated WT cells) | mitochondrial content / biogenesis (VDAC, TOM20, PGC-1α mRNA) [2] | mitochondrial respiration (OCR) [3] | distribution of free cholesterol (filipin staining punctae) [4] | activity of supercomplexes I+III+IV, I+III and III+IV (in-gel complex I and IV activity) ([1]; mitochondria from PS-DKO cells incubated with BI or myriocin) | assembly of respiratory supercomplexes (blue-native PAGE western blot) ([1]; mitochondria from PS-DKO cells, anti-complex I and III antibodies) | mitochondrial respiration (initial oxygen consumption rate, OCR) [5]
1 | C[C@H](NC(=O)Cc1cc(F)cc(F)c1)C(=O)N[C@H](C(=O)OC(C)(C)C)c1ccccc1 [DAPT] | decrease in the activity of supercomplexes | do not affect mitochondrial biogenesis | accentuated | this phenotype was recapitulated | – | – | –
2 | C[C@@H](NC(=O)c1cc(C(=O)N[C@@H](Cc2ccccc2)[C@H](O)CNC2CC2)cc(N(C)S(C)(=O)=O)c1)c1ccccc1 [BI, β-secretase inhibitor IV] | – | without changes in mitochondria; also recorded: do not affect mitochondrial biogenesis | – | reverse it | rescued | increases the assembly of supercomplexes I+III and I+III+IV | reversed the defect in mitochondrial respiration; also recorded: rescued the respiration defects

— patent US11266626B2, “Reduction of ER-MAM-localized APP-C99 and methods of treating alzheimer's disease” (THE TRUSTEES OF COLUMBIA UNIVERSITY IN THE CITY OF NEW YORK, priority 2015, dated 2022)
